The record followed here is patent US7078195B2, “Antibiotics AA-896” (Wyeth Holdings Corporation, priority 2001, dated 2006).

Values after ≈ are worked out from the molar mass of the structure shown.

What all share (assay): Broth dilution MIC
Assay type in all cases: cell-based
(Broth dilution looks for growth in wells or tubes with falling amounts of substance.)

One assay deals with E. coli GC 4560. Particulars: 18 hours at 35° C.; for MIC: Escherichia coli, GC4560, Mueller-Hinton broth, read-out: Antimicrobial Activity (MIC); for Antimicrobial Activity (MIC): Mueller-Hinton broth. How it is done: (§1) The in vitro antibacterial activity of AA-896-A1, AA-896-A2, AA-896-A3, AA-896-A4, AA-896-A5, AA-896-B1, AA-896-B2, AA-896-B3, AA-896-B4, AA-896-B5, AA-896-B6, AA-896-B7, AA-896-C1, AA-896-C2, AA-896-C3, AA-896-C4, AA-896-D1, AA896-D2 and AA-896-D3 is determined against a spectrum of Gram-positive and Gram-negative bacteria by a standard broth dilution method. Serial dilution of the compounds are made in Mueller-Hinton broth and inoculated with a bacterial suspension. The lowest concentration of compound that inhibited the growth of a bacterial strain after 18 hours of incubation at 35° C. is reported as the minimal inhibitory concentration (MIC) for that strain.

The subject of the next assay is E. faecalis GC 4555. Particulars: 18 hours at 35° C.; for MIC: Enterococcus faecalis, GC4555, Mueller-Hinton broth, read-out: Antimicrobial Activity (MIC); for Antimicrobial Activity (MIC): Mueller-Hinton broth. On the procedure: as §1
The test system of a further assay is S. marcescens GC 4077. The following applies: 18 hours at 35° C.; for MIC: Serratia marcescens, GC4077, Mueller-Hinton broth, read-out: Antimicrobial Activity (MIC); for Antimicrobial Activity (MIC): Mueller-Hinton broth. How it is done:
as §1

Another assay has as its system CNS GC 4538. The following applies: Mueller-Hinton broth, 18 hours at 35° C.; for MIC: read-out: Antimicrobial Activity (MIC). On the procedure:
as §1

The test system of another assay is CNS GC 4547. The following applies: Mueller-Hinton broth, 18 hours at 35° C.; for MIC: read-out: Antimicrobial Activity (MIC). How it is done: as §1
The subject of a further assay is E. cloacae GC 3783. The following applies: 18 hours at 35° C.; for MIC: Enterobacter cloacae, GC3783, Mueller-Hinton broth, read-out: Antimicrobial Activity (MIC); for Antimicrobial Activity (MIC): Mueller-Hinton broth. On the procedure:
as §1

The next assay relates to E. coli GC 3226. The following applies: 18 hours at 35° C.; for MIC: Escherichia coli, GC3226, Mueller-Hinton broth, read-out: Antimicrobial Activity (MIC); for Antimicrobial Activity (MIC): Mueller-Hinton broth. How it is done:
as §1

The next assay has as its system M. morganii GC 4531. Particulars: 18 hours at 35° C.; for MIC: Morganella morganii, GC4531, Mueller-Hinton broth, read-out: Antimicrobial Activity (MIC); for Antimicrobial Activity (MIC): Mueller-Hinton broth. How it is done: as §1
The next assay concerns CNS GC 4537. The following applies: Mueller-Hinton broth, 18 hours at 35° C.; for MIC: read-out: Antimicrobial Activity (MIC). How it is done: as §1
In a further assay the test system is E. coli GC 2203. The following applies: 18 hours at 35° C.; for MIC: Escherichia coli, GC2203, Mueller-Hinton broth, read-out: Antimicrobial Activity (MIC); for Antimicrobial Activity (MIC): Mueller-Hinton broth. On the procedure:
as §1

The test system of a further assay is S. aureus GC 4536. The following applies: 18 hours at 35° C.; for MIC: Staphylococcus aureus, GC4536, Mueller-Hinton broth, read-out: Antimicrobial Activity (MIC); for Antimicrobial Activity (MIC): Mueller-Hinton broth. On the procedure:
as §1

The subject of the next assay is E. faecalis GC 842. Particulars: 18 hours at 35° C.; for MIC: Enterococcus faecalis, GC842, Mueller-Hinton broth, read-out: Antimicrobial Activity (MIC); for Antimicrobial Activity (MIC): Mueller-Hinton broth. On the procedure:
as §1

The test system of a further assay is E. faecalis GC 2242. Particulars: 18 hours at 35° C.; for MIC: Enterococcus faecalis, GC2242, Mueller-Hinton broth, read-out: Antimicrobial Activity (MIC); for Antimicrobial Activity (MIC): Mueller-Hinton broth. How it is done:
as §1

The test system of a further assay is E. coli GC 4559. Particulars: 18 hours at 35° C.; for MIC: Escherichia coli, GC4559, Mueller-Hinton broth, read-out: Antimicrobial Activity (MIC); for Antimicrobial Activity (MIC): Mueller-Hinton broth. How it is done:
as §1

A further assay deals with P. aeruginosa GC 4532. Particulars: 18 hours at 35° C.; for MIC: Pseudomonas aeruginosa, GC4532, Mueller-Hinton broth, read-out: Antimicrobial Activity (MIC); for Antimicrobial Activity (MIC): Mueller-Hinton broth. How it is done:
as §1

In the next assay the test system is K. pneumoniae GC 4534. Particulars: 18 hours at 35° C.; for MIC: Klebsiella pneumoniae, GC4534, Mueller-Hinton broth, read-out: Antimicrobial Activity (MIC); for Antimicrobial Activity (MIC): Mueller-Hinton broth. How it is done:
as §1

The next assay has as its system P. rettgeri GC 4530. Particulars: 18 hours at 35° C.; for MIC: Providencia rettgeri, GC4530, Mueller-Hinton broth, read-out: Antimicrobial Activity (MIC); for Antimicrobial Activity (MIC): Mueller-Hinton broth. How it is done: as §1
The next assay deals with S. aureus GC 1131. The following applies: 18 hours at 35° C.; for MIC: Staphylococcus aureus, GC1131, Mueller-Hinton broth, read-out: Antimicrobial Activity (MIC); for Antimicrobial Activity (MIC): Mueller-Hinton broth. How it is done: as §1
The test system of another assay is P. aeruginosa GC 2214. Particulars: 18 hours at 35° C.; for MIC: Pseudomonas aeruginosa, GC2214, Mueller-Hinton broth, read-out: Antimicrobial Activity (MIC); for Antimicrobial Activity (MIC): Mueller-Hinton broth. How it is done: as §1
In another assay the test system is S. aureus GC 2216. The following applies: 18 hours at 35° C.; for MIC: Staphylococcus aureus, GC2216, Mueller-Hinton broth, read-out: Antimicrobial Activity (MIC); for Antimicrobial Activity (MIC): Mueller-Hinton broth. On the procedure: as §1

As for `CC(C)C(NC(=O)NC(C(=O)NC(C(=O)NCCCNC(C(=O)O)C(O)C1OC(n2ccc(=O)[nH]c2=O)C(O)C1O)C(O)C(C)C)C1CCNC(=N)N1)C(=O)O` [AA-896-C4, 6-[[3-[2-[2-[[(1-Carboxy-2-methylpropyl)carbamoyl]amino]-2-(hexahydro-2-iminopyrimidin-4-yl)acetamido]-3-hydroxy-4-methylpentanamido]propyl]amino]-1,6-dideoxy-1-(3,4-dihydro-2,4-dioxopyrimidin-1(2H)-yl)-β-D-heptofuranuronic acid], the MIC (commonly the least concentration at which growth counts as inhibited) with E. coli GC 4560 is 4 µg/mL (≈ 4.99 µM); in the assay with E. faecalis GC 4555 it was over 32 µg/mL; in the assay with S. marcescens GC 4077, over 32 µg/mL; in the assay on CNS GC 4538, over 32 µg/mL; in the assay with CNS GC 4547 it was over 32 µg/mL; in the assay on E. cloacae GC 3783 it was over 32 µg/mL. Moreover, the MIC in the assay with E. coli GC 3226, in the assay with M. morganii GC 4531, with CNS GC 4537, in the assay on E. coli GC 2203, in the assay on S. aureus GC 4536 and in the assay with E. faecalis GC 842 was over 32 µg/mL each time. Further, the MIC with E. faecalis GC 2242 is over 32 µg/mL; in the assay with E. coli GC 4559, over 32 µg/mL; with P. aeruginosa GC 4532, 32 µg/mL (≈ 40 µM); with K. pneumoniae GC 4534, over 32 µg/mL; with P. rettgeri GC 4530, over 32 µg/mL; in the assay with S. aureus GC 1131, over 32 µg/mL. The minimal inhibitory concentration (MIC) was 32 µg/mL (≈ 40 µM) in the assay on P. aeruginosa GC 2214 and over 32 µg/mL with S. aureus GC 2216.
As to `CC(C)C(NC(=O)NC(C(=O)NC(C(=O)NCCCNC(C(=O)O)C(O)C1OC(n2ccc(=O)[nH]c2=O)C(O)C1O)C(OC(=O)CCCCCCCCCCCCN(O)C(=N)N)C(C)C)C1CCNC(=N)N1)C(=O)O` [AA-896-A5, 6-[[3-[3-[[13-(Carbamimidoylhydroxyamino)tridecanoyl]oxy]-2-[2-[[(1-carboxy-2-methyl-propyl)carbamoyl]amino]-2-(hexahydro-2-iminopyrimidin-4-yl)acetamido]-4-methyl-pentanamido]propyl]amino]-1,6-dideoxy-1-(3,4-dihydro-2,4-dioxopyrimidin-1(2H)-yl)-β-D-heptofuranuronic acid], the MIC is at most 0.06 µg/mL with E. coli GC 4560; 32 µg/mL (≈ 29.9 µM) with E. faecalis GC 4555; over 64 µg/mL with S. marcescens GC 4077; 4 µg/mL (≈ 3.74 µM) with CNS GC 4538; 16 µg/mL (≈ 15 µM) with CNS GC 4547; 1 µg/mL (≈ 0.934 µM) in the assay with E. cloacae GC 3783. Also, the minimum inhibitory concentration (MIC) was 16 µg/mL (≈ 15 µM) with E. coli GC 3226; over 64 µg/mL in the assay on M. morganii GC 4531; 16 µg/mL (≈ 15 µM) with CNS GC 4537; 16 µg/mL (≈ 15 µM) in the assay with E. coli GC 2203; 8 µg/mL (≈ 7.48 µM) in the assay on S. aureus GC 4536; over 64 µg/mL with E. faecalis GC 842. The MIC was over 64 µg/mL in the assay with E. faecalis GC 2242; 4 µg/mL (≈ 3.74 µM) in the assay with E. coli GC 4559; 32 µg/mL (≈ 29.9 µM) with P. aeruginosa GC 4532; 8 µg/mL (≈ 7.48 µM) with K. pneumoniae GC 4534; over 64 µg/mL in the assay with P. rettgeri GC 4530; 16 µg/mL (≈ 15 µM) in the assay on S. aureus GC 1131. Moreover, the minimum inhibitory concentration (MIC) in the assay with P. aeruginosa GC 2214 stood at 32 µg/mL (≈ 29.9 µM); with S. aureus GC 2216 it was 16 µg/mL (≈ 15 µM).
On to `COC1C(OC(C(NCCCNC(=O)C(CC(C)C)NC(=O)C(NC(=O)NC(C(=O)O)C(C)C)C2CCNC(=N)N2)C(=O)O)C2OC(n3ccc(=O)[nH]c3=O)C(O)C2O)OC(CN)C1O` [AA-896-D1, 5-O-[5-Amino-5-deoxy-2-O-methyl-β-D-ribofuranosyl]-6-[[3-[2-[2-[[(1-carboxy-2-methyl-propyl)carbamoyl]amino]-2-(hexahydro-2-iminopyrimidin-4-yl)acetamido]-4-methyl-pentanamido]propyl]amino]-1,6-dideoxy-1-(3,4-dihydro-2,4-dioxopyrimidin-1(2H)-yl)-β-D-heptofuranuronic acid], for which the “Antimicrobial Activity (MIC)” value with E. coli GC 4560 was 1 µg/mL; with E. faecalis GC 4555, over 32 µg/mL; in the assay on S. marcescens GC 4077, over 32 µg/mL; in the assay with CNS GC 4538, over 32 µg/mL; in the assay on CNS GC 4547, over 32 µg/mL; in the assay with E. cloacae GC 3783, 32 µg/mL. Besides, the “Antimicrobial Activity (MIC)” value is 32 µg/mL in the assay on E. coli GC 3226; over 32 µg/mL in the assay with M. morganii GC 4531; over 32 µg/mL with CNS GC 4537; over 32 µg/mL in the assay on E. coli GC 2203; over 32 µg/mL in the assay on S. aureus GC 4536; over 32 µg/mL in the assay on E. faecalis GC 842. The “Antimicrobial Activity (MIC)” value with E. faecalis GC 2242 was over 32 µg/mL; in the assay on E. coli GC 4559, over 32 µg/mL; in the assay on P. aeruginosa GC 4532 it was 32 µg/mL; in the assay on K. pneumoniae GC 4534, over 32 µg/mL; with P. rettgeri GC 4530 it was over 32 µg/mL; in the assay on S. aureus GC 1131, over 32 µg/mL. In addition, the “Antimicrobial Activity (MIC)” value with P. aeruginosa GC 2214 is 32 µg/mL; with S. aureus GC 2216, over 32 µg/mL.
Turning to `CC(C)CCCCC(=O)OC(C(C)C)C(NC(=O)C(NC(=O)NC(C(=O)O)C(C)C)C1CCNC(=N)N1)C(=O)NCCCNC(C(=O)O)C(OC1OC(CN)C(O)C1O)C1OC(n2ccc(=O)[nH]c2=O)C(O)C1O` [AA-896-B7, 5-O-[5-Amino-5-deoxy-β-D-ribofuranosyl]-6-[[3-[2-[2-[[(1-carboxy-2-methylpropyl)-carbamoyl]amino]-2-(hexahydro-2-iminopyrimidin-4-yl)acetamido]-4-methyl-3-[(6-methylheptanoyl)oxy]pentanamido]propyl]amino]-1,6-dideoxy-1-(3,4-dihydro-2,4-dioxopyrimidin-1(2H)-yl)-β-D-heptofuranuronic acid], the “Antimicrobial Activity (MIC)” value is “<=0.06 μg/ml” in the assay on E. coli GC 4560; over 64 µg/mL with E. faecalis GC 4555; over 64 µg/mL in the assay on S. marcescens GC 4077; over 64 µg/mL in the assay with CNS GC 4538; over 64 µg/mL in the assay on CNS GC 4547; 16 µg/mL with E. cloacae GC 3783. Moreover, the “Antimicrobial Activity (MIC)” value in the assay on E. coli GC 3226, in the assay with M. morganii GC 4531, in the assay on CNS GC 4537, in the assay with E. coli GC 2203, in the assay on S. aureus GC 4536 and with E. faecalis GC 842 was over 64 µg/mL throughout. Further, the “Antimicrobial Activity (MIC)” value in the assay on E. faecalis GC 2242 is over 64 µg/mL; in the assay with E. coli GC 4559 it was 64 µg/mL; with P. aeruginosa GC 4532 it was over 64 µg/mL; with K. pneumoniae GC 4534, 64 µg/mL; in the assay on P. rettgeri GC 4530 it was over 64 µg/mL; with S. aureus GC 1131, over 64 µg/mL. Besides, the “Antimicrobial Activity (MIC)” value in the assay on P. aeruginosa GC 2214 and in the assay with S. aureus GC 2216 was over 64 µg/mL in each case.
